Experiments:
[1] = test system: female spontaneously hypertensive (SHR) rats; assay: Cyclosporine A-induced nephrotoxicity, 14 days dosing, serum BUN (Example 63); type: in vivo
Protocol: All experiments were carried out using female spontaneously hypertensive (SHR) rats, weight range 160-200 gm, obtained from Taconic Farms. […] Three thromboxane antagonists have been studied. […] Thromboxane antagonists have been administered as the sodium salt dissolved in saline, the sodium salt dissolved in 0.1% NaHCO3 or the free acid suspended in 1% Methocel.

[2] = test system: female spontaneously hypertensive (SHR) rats; assay: Cyclosporine A-induced nephrotoxicity, pilot study, 2 weeks dosing, serum BUN and creatinine (Example 64); type: in vivo; conditions: for Serum BUN / Serum Creatinine: 2 weeks, means ± S.E.M. (n = 8)
[3] = test system: female spontaneously hypertensive (SHR) rats; assay: Cyclosporine A-induced nephrotoxicity, 5 week study, serum BUN, serum creatinine, creatinine clearance (Example 64); conditions: for Mean Serum BUN Values: Compound 63 (10 mg/kg/day) and Cyclosporine A; for Mean Serum Creatinine Levels: Compound 63 (10 mg/kg/day) and Cyclosporine
Protocol: Experiments were carried out using groups of 6 female spontaneously hypertensive (SHR) rats, weight range 166-194 gm, obtained form Taconic Farms. […] At weekly intervals form 2 weeks onwards, animals were placed in individual metabolism cages and 24 hr urin samples collected, the volume measured and the creatinine levels determined (Lakeshore Diagnostic Laboratories). Creatinine clearance per rat was calculated from the formula: [formula] where Ucr = concentration of creatine in urine • Per = concentration of creatinine in plasma • V = volume of urine flow in ml/min
After removal from the metabolism cage, a blood sample was taken from each rat for determination of serum BUN and creatinine (Lakeshore Diagnostic Laboratories). In a preliminary study, groups of 8 rats were dosed as above for 2 weeks only and serum samples removed for determination of BUN and creatinine as above.

rats = conditions: cyclosporine A nephrotoxicity model, Penico et al. 1986; cited from earlier work
[4] = Cyclosporine A and Compound 63 3 mg/kg/day
[5] = Cyclosporine A and Compound 63 10 mg/kg/day

In the case of O=C(O)CC1CCCc2c1n(Cc1ccc(Cl)cc1)c1ccc(F)cc21 (racemic) [Compound 1, 9-p-chlorobenzyl-6-fluoro-1,2,3,4-tetrahydracarbazol-1-yl-acetic acid], the “inhibition of the increase in serum BUN” value ([1]; Table 1 (Experiment 1), 3 mg/kg/day in saline with cyclosporine A) is reported as “significant inhibition”.

With CS(=O)(=O)c1ccc(Cn2c3c(c4cc(F)cc(F)c42)CCCC3CC(=O)O)cc1 (single isomer, unassigned) [Compound 63] the “reduction of the increase in serum BUN” value ([2]; 3 or 10 mg/kg/day with cyclosporine A, pilot study) was “significantly reduced the increase in serum BUN to control levels”, the “Serum BUN” value [2, 4] was 20.8 ± 1.0 mg/dL and the “Serum Creatinine” value [2, 4] was 0.64 ± 0.02 mg/dL. For the same compound, the “Serum BUN” value [2, 5] was 22.2 ± 0.7 mg/dL, the “Serum Creatinine” value [2, 5] was 0.65 ± 0.04 mg/dL and the “reduction of the increase in serum creatinine” value ([2]; higher dose (10 mg/kg/day) with cyclosporine A, pilot study, p = 0.07) was “failed to reach statistical significance”. The “reduction of the increase in serum creatinine” value ([2]; lower dose (3 mg/kg/day) with cyclosporine A, pilot study) was “significantly reduced the increase in serum creatinine”, the “Mean Serum BUN Values” ([3]; week 2) was 26.4 ± 0.9 mg/dL and the “Mean Serum BUN Values” ([3]; week 3) was 22.3 ± 1.7 mg/dL. For the same compound, the “Mean Serum BUN Values” ([3]; week 4) was 24.0 ± 1.4 mg/dL, the “Mean Serum BUN Values” ([3]; week 5) was 21.0 ± 1.1 mg/dL and the Mean Serum Creatinine Levels ([3]; week 2) was 0.51 ± 0.03 mg/dL. The Mean Serum Creatinine Levels ([3]; week 3) was 0.44 ± 0.01 mg/dL, the Mean Serum Creatinine Levels ([3]; week 4) was 0.54 ± 0.02 mg/dL and the Mean Serum Creatinine Levels ([3]; week 5) was 0.42 ± 0.01 mg/dL. The “prevention of cyclosporine A-induced changes (serum BUN, creatinine clearance)” value ([3]; cotreatment with Compound 63 (10 mg/kg/day), 5 week study) was “prevented”, the “cyclosporine A-induced nephrotoxicity” value ([3]; overall conclusion of Example 64) was “inhibits” and the “creatinine clearance, Compound 63 and cyclosporine A compared to cyclosporine A alone” value ([3]; week 3) was “significantly different”. The “creatinine clearance, Compound 63 and cyclosporine A compared to cyclosporine A alone” value ([3]; week 5, p = 0.07) was “just failed to reach statistical significance” and the “serum BUN, Compound 63 and cyclosporine A compared to cyclosporine A alone” value ([3]; weeks 3 and 5) was “significantly different”.

With O=C(O)CC1CCCc2c1n(Cc1ccc(Cl)cc1)c1c(F)cc(F)cc21 (single isomer, unassigned; (-)) [Compound 37, (-)-9 p-Chlorobenzyl-6,8-difluoro-1,2,3,4-tetrahydrocarbazol-1-yl-acetic acid] the “inhibition of the rise in serum BUN” value ([1]; both doses (3 and 10 mg/kg/day), suspension of the free acid, with cyclosporine A) was “significant inhibition”.

For CS(=O)(=O)c1ccc(Cn2c3c(c4cc(F)cc(F)c42)CCCC3CC(=O)O)cc1 (single isomer, unassigned; (-)) [Compound 50, (-)9-p-Methylsulfonylbenzyl-6,8-difluoro-1,2,3,4-tetrahydrocarbazol-1-yl acetic acid], the “effects on cyclosporine A-induced rises in serum BUN” value ([1]; both 3 and 10 mg/kg/day, suspension of the free acid (Table 4)) was “effective”.

In the case of Cc1c(Cn2ccnc2)c2ccccc2n1CCC(=O)O [Uk-38,485], the glomerular filtration rate (rats) is given as “increased” and the “urinary TxB2” value (rats) is given as “reduced”.

Reference: patent publication EP0307077A1, “Tetrahydrocarbazoles for the improvement of cyclosporin therapy” (MERCK FROSST CANADA INC., priority 1987, dated 1989)
